How the values were obtained:
E. coli ATCC 25922 = experiment: In vivo efficacy, murine septicemia model; settings: 30 mg kg^−1 IP once (1 h post-infection); 10 CD-1 mice; positive control
Procedure: CD-1 mice (7 weeks old, 27–28 g female) were used (Charles River, France). These animals were housed for a week of acclimation period before the experiment in a protected area in the ‘Centre de Zootechnie de l’Université de Bourgogne’ (Biosafety level 2 facility) and fed ad libitum according to the current recommendations by the European Institute of Health. Housing took place in rooms where a 12-h/12 h light/dark cycle is applied, the temperature ranges from 18 to 21°C and the relative humidity from 45 to 65%. The animal facility is authorized by the French authorities (Agreement N° C 21 464 04 EA). […]
For animal experiments, Bac7PS was synthesized at Genscript as acetate salt and with a purity of 92%. […] First, the maximum tolerated dose (MTD) for the peptide was determined by testing different peptide doses in 8 groups with 5 animals per group. The peptide solution was administered once by intraperitoneal (IP) injection with a volume of between 94 and 240 μl (depending on the weight of the animal and the dosage) and the animals were monitored for 2 h following the injection, then 6 to 8 h later, and then once or twice a day, depending on the clinical status, up to 5 days post-injection. […] As endpoint, the wellbeing and survival rate, on a twice daily based evaluation for up to 3 days, was monitored.

bacteria = settings: cited from earlier work
Source text: One of the most intensively researched proline-rich AMPs is bactenecin-7 (Bac7). It is a 60 amino acid long linear peptide that was first isolated from bovine neutrophils. […] Measuring the antimicrobial activity of heavily mutated variants was valuable to determine the sequence-activity relationship of Bac7_1-23 because (i) the activity of specific amino acid res ... || Bac7PS excelled over Bac7_1-23 in terms of antimicrobial activity against clinical isolates including MDR bacteria and a decreased dependency on the SbmA transporter (Fig. 4a; Table 2). […] We mainly attribute the activity gain to the increased ability to penetrate membranes, which was accompanied by a slight increase in membrane damage at higher concentrations compared to Bac7_1-23 (Fig. 4b; Additional file 1 ...

E. coli TOP10 = experiment: Deep mutational scanning, site-saturation Bac7_1-23 library, intracellular self-screening with NGS; format: cell-based; settings: induction vs 4.5 h, n = 3, more negative = more antimicrobial
Procedure: A focused strategy was pursued to generate diversity at positions 5, 18, 19, and 20 in the Bac7_1-23 peptide. […] Degeneration was introduced by using the QuikChange technique, amplifying the pBAD plasmid containing the Bac7_1-23 gene using a mixture of 20 oligonucleotides (Additional file 1: Table S1) at a final concentration of 0.3 μM and Phusion® High-Fidelity PCR Master Mix in HF buffer. The amplification was performed using 20 cycles of 98°C for 10 s, 60°C for 15 s, and 72°C for 10 s. The PCR product was treated with the enzyme Dpn1 to remove the template plasmid and subsequently purified. The purified product was used to transform 20 μl of CloneCatcher™ Gold DH5G Electrocompetent E. coli (Genlantis, Burlington, USA) cells using electroporation.
To assess the antimicrobial activity of multiple peptides in parallel when expressed intracellularly in E. coli TOP10, previously prepared aliquots containing E. coli plasmid libraries created by either random mutagenesis or site-saturation mutagenesis were used. For both approaches, three aliquots containing approximately 500 million cells each of E. coli TOP10 harboring peptide-encoding DNA sequences on the pBAD plasmid were thawed and added to three 1-l baffled shake flasks containing 100 ml of LB medium + 100 μg ml^−1 carbenicillin. The cultures were grown for roughly 7 h at 37°C.

Molecule: O=C(O)c1cn(C2CC2)c2cc(N3CCNCC3)c(F)cc2c1=O [ciprofloxacin]
- survival (E. coli ATCC 25922): survival of all mice

Molecule: Bac7_1-15: Bac7_1-15 (RRIRPRPPRLPRPRP; Bactenecin-7; UniProt P19661 131-145, looked up, fragment)
- antimicrobial activity (bacteria): loss of antimicrobial activity

Molecule: RRIRDRPPRLPRPRPRPIKDPRP [site-saturation library peptide ID 5521]
- lfcShrink4 (shrunken log2-fold change of abundance of peptide-encoding DNA) (E. coli TOP10): -4
